Experimental data: patent US6914045B2, “Glycopeptide antibiotics” (Wyeth Holdings Corporation, priority 2001, dated 2005)
≈ marks a conversion by molar mass, not a printed value. Read-outs that look alike come from different tables or passages of the source.

Key:
Assay in all cases: in vitro antibacterial evaluation, MIC by broth dilution
Format in all cases: cell-based
Enterococcus sp. = system: Enterococcus sp.
Experimental: (§1) Methods for in vitro Antibacterial Evaluation (Table 1)
(§2) The minimum inhibitory concentration (MIC), the lowest concentration of the antibiotic which inhibits growth of the test organism, is determined by the broth dilution method using Muller-Hinton II […] (Baltimore Biological Laboratories) following the recommendations of the National Committee for Clinical Laboratory Standards [Methods for dilution antimicrobial susceptibility tests for bacteria that grow aerobically, approved standard M7-A2, National Committee for Clinical Laboratory Standards, Villanova, Pa.].
(§3) An inoculum level of 5×10^5 CFU/mL, and a range of antibiotic concentrations (64-0.06 μg/mL) is used. […] The test organisms include a spectrum of Gram-positive bacteria comprised of Staphylococcus sp., Streptococcus sp. and Enterococcus sp. These organisms include recent clinical isolates that are resistant to methicillin, penicillin and/or vancomycin.

Staphylococcus sp. = system: Staphylococcus sp.
Experimental: as §1, §2, §3

Streptococcus sp. = system: Streptococcus sp.
Experimental: as §1, §2, §3

Escherichia coli = system: Escherichia coli
Summary of the method: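 MIC is the lowest antibiotic concentration (tested 64-0.06 μg/mL) preventing growth of a 5×10^5 CFU/mL inoculum. Determined by broth dilution in Mueller-Hinton II medium following NCCLS standard M7-A2.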

## CC(c1ccccc1)C1NC(=O)CNC(=O)C(CO)NC(=O)C(C(O)C2CNC(=N)N2C2OC(CO)C(O)C(O)C2O)NC(=O)C(C(O)C2CNC(=N)N2)NC(=O)C(Cc2ccc3oc(-c4ccc(-c5ccccc5)cc4)nc3c2)NC1=O (stereo not drawn) [Example 33, Cyclo[3-[2-([1,1-biphenyl]-4-yl)-1,3-benzoxazol-5-yl]alanyl-3-(2-iminoimidazolidin-4-yl)-seryl-3-(3-hexopyranosyl-2-iminoimidazolidin-4-yl)serylserylglycyl-β-methylphenylalanyl]]
Enterococcus sp.
  MIC Enterococcus avium (GC 4558): 8 µg/mL (≈ 6.97 µM)
  MIC Enterococcus faecalis (ATCC 29212): 32 µg/mL (≈ 27.9 µM)
  MIC Enterococcus faecalis (GC 2242): 16 µg/mL (≈ 13.9 µM)
  MIC Enterococcus faecalis (GC 2691): 16 µg/mL (≈ 13.9 µM)
  MIC Enterococcus faecalis (GC 3059): 32 µg/mL (≈ 27.9 µM)
  MIC Enterococcus faecalis (GC 4552): 16 µg/mL (≈ 13.9 µM)
  MIC Enterococcus faecalis (GC 4553): 16 µg/mL (≈ 13.9 µM)
  MIC Enterococcus faecalis (GC 4554): 16 µg/mL (≈ 13.9 µM)
  MIC Enterococcus faecalis (GC 6189): 16 µg/mL (≈ 13.9 µM)
  MIC Enterococcus faecium (GC 2243): 8 µg/mL (≈ 6.97 µM)
  MIC Enterococcus faecium (GC 4556): 64 µg/mL (≈ 55.7 µM)
  MIC Enterococcus faecium (GC 4557): 4 µg/mL (≈ 3.48 µM)
Staphylococcus sp.
  MIC Coagulase Negative Staphylococcus (GC 4547): 4 µg/mL (≈ 3.48 µM)
  MIC Coagulase Negative Staphylococcus (GC 4548): 4 µg/mL (≈ 3.48 µM)
  MIC Coagulase Negative Staphylococcus (GC 4549): 1 µg/mL (≈ 0.871 µM)
  MIC Coagulase Negative Staphylococcus (GC 4551): 8 µg/mL (≈ 6.97 µM)
  MIC Coagulase Negative Staphylococcus (GC 6257): 4 µg/mL (≈ 3.48 µM)
  MIC Staphylococcus aureus (ATCC 29213): 8 µg/mL (≈ 6.97 µM)
  MIC Staphylococcus aureus (GC 1131): 4 µg/mL (≈ 3.48 µM)
  MIC Staphylococcus aureus (GC 3051): 16 µg/mL (≈ 13.9 µM)
  MIC Staphylococcus aureus (GC 3053): 8 µg/mL (≈ 6.97 µM)
  MIC Staphylococcus aureus (GC 4541): 8 µg/mL (≈ 6.97 µM)
  MIC Staphylococcus aureus (GC 4542): 8 µg/mL (≈ 6.97 µM)
  MIC Staphylococcus aureus (GC 4544): 4 µg/mL (≈ 3.48 µM)
  MIC Staphylococcus aureus (GC 4545): 8 µg/mL (≈ 6.97 µM)
  MIC Staphylococcus aureus-SMITH (GC 4543): 4 µg/mL (≈ 3.48 µM)
  MIC Staphylococcus haemolyticus (GC 4546): 4 µg/mL (≈ 3.48 µM)
Streptococcus sp.
  MIC Streptococcus agalactiae (GC 4564): 32 µg/mL (≈ 27.9 µM)
  MIC Streptococcus pneumoniae (ATCC 6301): 32 µg/mL (≈ 27.9 µM)
  MIC Streptococcus pneumoniae (GC 1894): 32 µg/mL (≈ 27.9 µM)
  MIC Streptococcus pneumoniae (GC 4565): 64 µg/mL (≈ 55.7 µM)
  MIC Streptococcus pyogenes (GC 4563): 16 µg/mL (≈ 13.9 µM)
Escherichia coli
  MIC Escherichia coli (ATCC 25922): 64 µg/mL (≈ 55.7 µM)
  MIC Escherichia coli (GC 4559): 64 µg/mL (≈ 55.7 µM)
  MIC Escherichia coli (GC 4560): 16 µg/mL (≈ 13.9 µM)

## COc1cc(-c2nc3cc(CC4NC(=O)C(C(C)c5ccccc5)NC(=O)CNC(=O)C(CO)NC(=O)C(C(O)C5CNC(=N)N5C5OC(CO)C(O)C(O)C5O)NC(=O)C(C(O)C5CNC(=N)N5)NC4=O)ccc3o2)cc(OC)c1OC (stereo not drawn) [Example 34, Cyclo[3-[2-(3,4,5-trimethoxyphenyl)-1,3-benzoxazol-5-yl]alanyl-3-(2-iminoimidazolidin-4-yl)seryl-3-(3-hexopyranosyl-2-iminoimidazolidin-4-yl)serylserylglycyl-β-methylphenyl-alanyl]]
Enterococcus sp.; strain ATCC 29212, broth dilution, 18 hours at 35° C.
  MIC Enterococcus faecalis (ATCC 29212): 64 µg/mL (≈ 55.1 µM)
Enterococcus sp.; strain GC 2242, broth dilution, 18 hours at 35° C.
  MIC Enterococcus faecalis (GC 2242): 32 µg/mL (≈ 27.5 µM)
Enterococcus sp.; strain GC 2243, broth dilution, 18 hours at 35° C.
  MIC Enterococcus faecium (GC 2243): 32 µg/mL (≈ 27.5 µM)
Enterococcus sp.; strain GC 2691, broth dilution, 18 hours at 35° C.
  MIC Enterococcus faecalis (GC 2691): 32 µg/mL (≈ 27.5 µM)
Enterococcus sp.; strain GC 3059, broth dilution, 18 hours at 35° C.
  MIC Enterococcus faecalis (GC 3059): 32 µg/mL (≈ 27.5 µM)
Enterococcus sp.; strain GC 4552, broth dilution, 18 hours at 35° C.
  MIC Enterococcus faecalis (GC 4552): 32 µg/mL (≈ 27.5 µM)
Enterococcus sp.; strain GC 4553, broth dilution, 18 hours at 35° C.
  MIC Enterococcus faecalis (GC 4553): 32 µg/mL (≈ 27.5 µM)
Enterococcus sp.; strain GC 4554, broth dilution, 18 hours at 35° C.
  MIC Enterococcus faecalis (GC 4554): 32 µg/mL (≈ 27.5 µM)
Enterococcus sp.; strain GC 4556, broth dilution, 18 hours at 35° C.
  MIC Enterococcus faecium (GC 4556): 64 µg/mL (≈ 55.1 µM)
Enterococcus sp.; strain GC 4557, broth dilution, 18 hours at 35° C.
  MIC Enterococcus faecium (GC 4557): 8 µg/mL (≈ 6.88 µM)
Enterococcus sp.; strain GC 4558, broth dilution, 18 hours at 35° C.
  MIC Enterococcus avium (GC 4558): 16 µg/mL (≈ 13.8 µM)
Enterococcus sp.; strain GC 6189, broth dilution, 18 hours at 35° C.
  MIC Enterococcus faecalis (GC 6189): 64 µg/mL (≈ 55.1 µM)
Staphylococcus sp.; strain ATCC 29213, broth dilution, 18 hours at 35° C.
  MIC Staphylococcus aureus (ATCC 29213): 32 µg/mL (≈ 27.5 µM)
Staphylococcus sp.; strain GC 1131, broth dilution, 18 hours at 35° C.
  MIC Staphylococcus aureus (GC 1131): 32 µg/mL (≈ 27.5 µM)
Staphylococcus sp.; strain GC 3051, broth dilution, 18 hours at 35° C.
  MIC Staphylococcus aureus (GC 3051): 16 µg/mL (≈ 13.8 µM)
Staphylococcus sp.; strain GC 3053, broth dilution, 18 hours at 35° C.
  MIC Staphylococcus aureus (GC 3053): 32 µg/mL (≈ 27.5 µM)
Staphylococcus sp.; strain GC 4541, broth dilution, 18 hours at 35° C.
  MIC Staphylococcus aureus (GC 4541): 32 µg/mL (≈ 27.5 µM)
Staphylococcus sp.; strain GC 4542, broth dilution, 18 hours at 35° C.
  MIC Staphylococcus aureus (GC 4542): 32 µg/mL (≈ 27.5 µM)
Staphylococcus sp.; strain GC 4543, broth dilution, 18 hours at 35° C.
  MIC Staphylococcus aureus-SMITH (GC 4543): 16 µg/mL (≈ 13.8 µM)
Staphylococcus sp.; strain GC 4544, broth dilution, 18 hours at 35° C.
  MIC Staphylococcus aureus (GC 4544): 16 µg/mL (≈ 13.8 µM)
Staphylococcus sp.; strain GC 4545, broth dilution, 18 hours at 35° C.
  MIC Staphylococcus aureus (GC 4545): 32 µg/mL (≈ 27.5 µM)
Staphylococcus sp.; strain GC 4546, broth dilution, 18 hours at 35° C.
  MIC Staphylococcus haemolyticus (GC 4546): 8 µg/mL (≈ 6.88 µM)
Staphylococcus sp.; strain GC 4547, broth dilution, 18 hours at 35° C.
  MIC Coagulase Negative Staphylococcus (GC 4547): 16 µg/mL (≈ 13.8 µM)
Staphylococcus sp.; strain GC 4548, broth dilution, 18 hours at 35° C.
  MIC Coagulase Negative Staphylococcus (GC 4548): 16 µg/mL (≈ 13.8 µM)
Staphylococcus sp.; strain GC 4549, broth dilution, 18 hours at 35° C.
  MIC Coagulase Negative Staphylococcus (GC 4549): 4 µg/mL (≈ 3.44 µM)
Staphylococcus sp.; strain GC 4551, broth dilution, 18 hours at 35° C.
  MIC Coagulase Negative Staphylococcus (GC 4551): 32 µg/mL (≈ 27.5 µM)
Staphylococcus sp.; strain GC 6257, broth dilution, 18 hours at 35° C.
  MIC Coagulase Negative Staphylococcus (GC 6257): 8 µg/mL (≈ 6.88 µM)
Streptococcus sp.; strain ATCC 6301, broth dilution, 18 hours at 35° C.
  MIC Streptococcus pneumoniae (ATCC 6301): 32 µg/mL (≈ 27.5 µM)
Streptococcus sp.; strain GC 1894, broth dilution, 18 hours at 35° C.
  MIC Streptococcus pneumoniae (GC 1894): 16 µg/mL (≈ 13.8 µM)
Streptococcus sp.; strain GC 4563, broth dilution, 18 hours at 35° C.
  MIC Streptococcus pyogenes (GC 4563): 8 µg/mL (≈ 6.88 µM)
Streptococcus sp.; strain GC 4564, broth dilution, 18 hours at 35° C.
  MIC Streptococcus agalactiae (GC 4564): 32 µg/mL (≈ 27.5 µM)
Streptococcus sp.; strain GC 4565, broth dilution, 18 hours at 35° C.
  MIC Streptococcus pneumoniae (GC 4565): 32 µg/mL (≈ 27.5 µM)
Escherichia coli; strain ATCC 25922, broth dilution, 18 hours at 35° C.
  MIC Escherichia coli (ATCC 25922): 64 µg/mL (≈ 55.1 µM)
Escherichia coli; strain GC 4559, broth dilution, 18 hours at 35° C.
  MIC Escherichia coli (GC 4559): 64 µg/mL (≈ 55.1 µM)
Escherichia coli; strain GC 4560, broth dilution, 18 hours at 35° C.
  MIC Escherichia coli (GC 4560): 16 µg/mL (≈ 13.8 µM)
